Where no end group is shown, it is not given here.
Assays:
[1] = system: LPS-injected mice; assay: LPS-induced septic shock mouse model: survival and murine sepsis score (MSS); format: in vivo; settings: for disease progression (MSS), compound alone / survival (MSS<3), compound alone: BCP 25 mg/kg or pregnenolone 10 mg/kg i.p. every 12 hrs from 24 h before LPS, n=7
Experimental: Male wild type 8-10 weeks old mice of inbred strain C57BL/6J-RCC were obtained from Envigo Ltd. All experiments were in accordance and with the approval of the institutional animal care and use committee of Tel-Aviv University for these experiments (permit number 01-20-022). The mice were divided into treatment groups 24 hours before LPS administration. All treatments were administered intraperitoneally (IP). OGP was administered at the indicated doses only twice, 24 hrs before LPS and right before the LPS at a dose of 0.5, 5 or 15 μg/kg. Olorinab was administered at 0.33, 1, or 5 mg/kg twice a day starting 24 hours before LPS. DHEA was injected once a day at a dose of 30 mg/kg, starting 24 hr before LPS injection. β-Caryophyllene (BCP or BCP, used herein interchangeably) and Pregnenolone were injected every 12 hours starting 24 h before the LPS injection. A single IP injection of LPS was administered at 25 μg/gr dose. This study had 2 control groups as indicated in the experiments below. One that received PBS instead of the LPS injection (‘PBS’), and one that received PBS instead of the treatments (CB2 agonist or steroid) before the LPS injection (‘LPS’). For humane reasons murine sepsis score (MSS) was used as a surrogate for survival (Mai et al. Intensive Care Med Exp, 2018 Jul. 27; 6(1):20. doi: 10.1186/s40635-018-0184-3). A low MSS score (0-2) served as a surrogate for survival while mice that reached the score 3 were defined as critically ill and were euthanized.
Statistical analyses—For survival experiments, Gehan-Breslow-Wilcoxon test was used for multiple groups comparison. For disease progression Dunnett's multiple comparisons test was used. Differences between groups were considered significant when P<0.05.
A dose response experiment was conducted to test the potential effect of 5aa-OGP in the sepsis model (FIG. 1A). A single injection of 5aa-OGP was administered i.p. at 3 different doses, 0.5 μg/kg, 5 μg/kg and 15 μg/kg, 24 hours prior to the LPS injection; these concentrations were chosen based on the previous works in the lab.
In a separate experiment, mice received a single i.p. injection of the optimal dose of 5aa-OGP (5 μg/kg) and 24 hours later were intraperitoneal (i.p) injected with a lethal dose of LPS. Control mice received a single PBS injection 24 hours prior to LPS injection.
In order to test the therapeutic potential of another CB2 agonist, olorinab was tested in improving survival rate in a mouse model of septic shock induced by LPS injection. Olorinab was administered i.p. 24 hours prior to LPS injection followed by twice-daily injections of olorinab.
The combinations DHEA+olorinab and DHEA+5aa-OGP were tested versus each compound alone and versus vehicle only (no treatment) in LPS-injected mice. The mice received the first dose of treatment 24 hr before LPS injection in the treated groups. All the injections were given i.p., olorinab doses were administered twice a day, DHEA and 5aa-OGP were administered once a day. LPS was given only once.
The combination BCP+Pregnenolone was tested versus each compound alone and versus vehicle only (no treatment) in LPS-injected mice. Mice were pre-treated with ß-Caryophyllene (BCP. 25 mg/kg) and pregnenolone (Preg, 10 mg/kg), separately (FIG. 4A) and in combination 24 and 12 hrs before LPS injection (25 mg/kg) and then every 12 hrs. All the injections were given i.p., twice a day. LPS was given only once. A Murine Septic Score (MSS) was recorded every 12 hours (FIGS. 4A and 4C). Survival (FIGS. 4B and 4D) was defined as MSS<3. * P<0.05, n=7.

[2] = system: T-cells; assay: T-cell subsets in spleen and bone marrow of treated mice; format: in vivo, mouse; settings: 5 μg/kg/day daily for 5 days; 12-week-old mice
Excerpt: This is likely due to its strong immunosuppressive actions, including a severe weakening of the humoral/acquired immune system. Our proposed approach uses CB2 agonists that have immunomodulatory roles. On one hand, OGP strongly suppresses the innate immune system, exemplified here as inhibition of cytokine expression by activated macrophages (FIG. 6), and suppression of xylene-induced ear edema (FIG. 7). On the other hand, OGP has no suppressive effects on the adaptive/acquired system, exemplified here by the unaffected number of T cell subsets in mice treated with 5aa-OGP (FIG. 7). 12-week-old mice were injected with 5 μg/kg/day 5aa-OGP, 3 mg/kg/day HU910, or with a vehicle control daily for 5 days. The spleen and bone marrow (BM) were analyzed.

[3] = system: patients with dcSSc or dermatomyositis; settings: Phase II; dcSSc and dermatomyositis with active skin involvement; cited from earlier work
[4] = system: polymicrobial sepsis; settings: mice; Oberbeck et al. 2001; cited from earlier work
[5] = system: COVID-19 patients; settings: COVID-19 patients who did not require oxygen; cited from earlier work

Molecule: CC(=O)[C@H]1CC[C@H]2[C@@H]3CC=C4C[C@@H](O)CC[C@]4(C)[C@H]3CC[C@]12C [Pregnenolone, pregn-5-en-3β-ol-20-one]
- disease progression (MSS), compound alone [1]: no significant effect
- survival (MSS<3), compound alone [1]: no significant effect

Molecule: YGFGG [5aa-OGP]
- effect on T-cells in spleen and bone marrow [2]: did not affect T-cells

Molecule: CC(C)(C)[C@@H](CO)NC(=O)c1nn(-c2c[n+]([O-])ccn2)c2c1C[C@@H]1C[C@H]21 [olorinab]
- survival percentage at 0.33 mg/kg ([1]; 0.33 mg/kg twice daily, i.p.): best survival percentage
- survival percentage at 1 mg/kg ([1]; 1 mg/kg twice daily, i.p., p<0.05): best survival percentage
- survival of LPS treated mice, different doses ([1]; olorinab 0.33, 1 or 5 mg/kg i.p. twice daily from 24 h before LPS): beneficial effect

Molecule: CCCCCCC(C)(C)c1cc(O)c2c(c1)OC(C)(C)[C@@H]1CC=C(C(=O)O)C[C@@H]21 [Lenabasum]
- physician-assessed and patient-reported efficacy outcomes [3]: improvement

Molecule: C[C@]12CC[C@H](O)CC1=CC[C@@H]1[C@@H]2CC[C@]2(C)C(=O)CC[C@@H]12 [DHEA, Dehydroepiandrosterone]
- TNF-α release [4]: reduction
- activity of T-cellular immunity [4]: improved activity
- survival in septic challenge [4]: increased survival

Molecule: C[C@@H]1C[C@H]2[C@@H]3CCC4=CC(=O)C=C[C@]4(C)[C@@]3(F)[C@@H](O)C[C@]2(C)[C@@]1(O)C(=O)CO [dexamethasone]
- mortality, patients who did not require oxygen [5]: significantly increased mortality

Molecule: C=C1CC/C=C(\C)CC[C@@H]2[C@@H]1CC2(C)C [BCP, β-caryophyllene]
- disease progression (MSS), compound alone [1]: slight beneficial effect
- survival (MSS<3), compound alone [1]: no significant effect

Source: patent US20240285723A1, “COMBINATION COMPOSITIONS FOR THE TREATMENT OF PATHOGEN INFECTIONS AND ASSOCIATED COMPLICATIONS” (priority 2021, published 2024)
